Results from patent publication US20090298820A1, “3-SUBSTITUTED-1H-PYRROLO[2,3-B]PYRIDINE AND 3-SUBSTITUTED-1H-PYRROLO[3,2-B]PYRIDINE COMPOUNDS, THEIR USE AS MTOR KINASE AND PI3 KINASE INHIBITORS, AND THEIR SYNTHESES” (Wyeth, priority 2008, published 2009).

How the values were obtained:
Assay type in all cases: biochemical
PI3Kγ = PI3Kγ (Homo sapiens, UniProt P48736); assay: PI3K-gamma fluorescence polarization assay; conditions: read-out: PI3Kγ Median IC50
PI3Kα = PI3Kα (Homo sapiens, UniProt P42336); assay: PI3K-alpha fluorescence polarization assay; conditions: read-out: PI3Kα Median IC50
Sequence of PI3Kα (P42336 whole entry, species assumed): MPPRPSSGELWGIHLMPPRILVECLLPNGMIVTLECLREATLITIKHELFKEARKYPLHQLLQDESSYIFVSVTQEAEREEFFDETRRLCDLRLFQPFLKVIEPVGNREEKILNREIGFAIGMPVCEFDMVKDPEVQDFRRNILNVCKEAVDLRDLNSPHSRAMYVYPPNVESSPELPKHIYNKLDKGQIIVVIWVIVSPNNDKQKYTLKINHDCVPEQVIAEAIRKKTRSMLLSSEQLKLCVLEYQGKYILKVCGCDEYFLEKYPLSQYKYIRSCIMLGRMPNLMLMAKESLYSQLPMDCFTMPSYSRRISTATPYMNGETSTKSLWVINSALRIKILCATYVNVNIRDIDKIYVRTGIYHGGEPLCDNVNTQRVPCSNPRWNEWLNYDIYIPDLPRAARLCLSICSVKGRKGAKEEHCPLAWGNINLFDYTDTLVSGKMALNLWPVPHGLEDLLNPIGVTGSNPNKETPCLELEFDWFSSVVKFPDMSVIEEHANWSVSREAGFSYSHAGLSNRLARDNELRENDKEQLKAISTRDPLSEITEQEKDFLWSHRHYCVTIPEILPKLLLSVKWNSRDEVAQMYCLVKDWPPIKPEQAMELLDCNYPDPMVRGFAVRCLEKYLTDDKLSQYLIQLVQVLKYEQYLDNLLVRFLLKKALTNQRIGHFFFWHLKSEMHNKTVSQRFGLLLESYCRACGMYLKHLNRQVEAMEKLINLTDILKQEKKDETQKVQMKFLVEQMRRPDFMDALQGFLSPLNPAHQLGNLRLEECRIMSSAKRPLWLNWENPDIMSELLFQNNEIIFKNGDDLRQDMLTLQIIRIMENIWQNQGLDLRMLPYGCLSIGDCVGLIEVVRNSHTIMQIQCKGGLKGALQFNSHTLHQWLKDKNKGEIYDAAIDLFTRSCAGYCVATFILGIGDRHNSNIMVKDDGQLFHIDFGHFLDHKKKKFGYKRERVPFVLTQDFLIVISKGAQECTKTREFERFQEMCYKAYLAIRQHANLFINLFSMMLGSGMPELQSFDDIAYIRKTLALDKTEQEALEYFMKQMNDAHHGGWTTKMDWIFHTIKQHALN
Sequence of PI3Kα (P27986 whole entry partner, species assumed): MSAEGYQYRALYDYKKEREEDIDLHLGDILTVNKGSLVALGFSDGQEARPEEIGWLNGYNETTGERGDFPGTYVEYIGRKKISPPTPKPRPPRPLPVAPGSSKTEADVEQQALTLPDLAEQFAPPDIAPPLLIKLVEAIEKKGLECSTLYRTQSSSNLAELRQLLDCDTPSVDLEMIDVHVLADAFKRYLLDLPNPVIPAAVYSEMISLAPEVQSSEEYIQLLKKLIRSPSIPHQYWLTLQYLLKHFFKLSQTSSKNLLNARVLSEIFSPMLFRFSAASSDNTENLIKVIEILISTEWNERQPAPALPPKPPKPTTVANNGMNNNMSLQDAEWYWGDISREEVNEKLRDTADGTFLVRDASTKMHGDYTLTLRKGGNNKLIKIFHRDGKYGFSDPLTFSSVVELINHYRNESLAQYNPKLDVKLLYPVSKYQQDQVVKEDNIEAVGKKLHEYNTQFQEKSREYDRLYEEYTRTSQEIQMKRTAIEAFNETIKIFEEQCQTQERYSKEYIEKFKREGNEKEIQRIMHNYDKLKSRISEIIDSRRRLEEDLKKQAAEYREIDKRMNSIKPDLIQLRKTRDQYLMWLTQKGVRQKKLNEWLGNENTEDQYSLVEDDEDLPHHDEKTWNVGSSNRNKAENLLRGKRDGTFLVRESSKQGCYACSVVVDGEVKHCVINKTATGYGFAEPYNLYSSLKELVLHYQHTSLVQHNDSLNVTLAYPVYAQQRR

mTOR = mTOR (Homo sapiens, UniProt P42345); assay: mTOR enzyme assay (DELFIA format, His6-S6K substrate); conditions: read-out: mTOR Kinase Median IC50

Sequence of PI3Kγ (P48736 whole entry, species assumed): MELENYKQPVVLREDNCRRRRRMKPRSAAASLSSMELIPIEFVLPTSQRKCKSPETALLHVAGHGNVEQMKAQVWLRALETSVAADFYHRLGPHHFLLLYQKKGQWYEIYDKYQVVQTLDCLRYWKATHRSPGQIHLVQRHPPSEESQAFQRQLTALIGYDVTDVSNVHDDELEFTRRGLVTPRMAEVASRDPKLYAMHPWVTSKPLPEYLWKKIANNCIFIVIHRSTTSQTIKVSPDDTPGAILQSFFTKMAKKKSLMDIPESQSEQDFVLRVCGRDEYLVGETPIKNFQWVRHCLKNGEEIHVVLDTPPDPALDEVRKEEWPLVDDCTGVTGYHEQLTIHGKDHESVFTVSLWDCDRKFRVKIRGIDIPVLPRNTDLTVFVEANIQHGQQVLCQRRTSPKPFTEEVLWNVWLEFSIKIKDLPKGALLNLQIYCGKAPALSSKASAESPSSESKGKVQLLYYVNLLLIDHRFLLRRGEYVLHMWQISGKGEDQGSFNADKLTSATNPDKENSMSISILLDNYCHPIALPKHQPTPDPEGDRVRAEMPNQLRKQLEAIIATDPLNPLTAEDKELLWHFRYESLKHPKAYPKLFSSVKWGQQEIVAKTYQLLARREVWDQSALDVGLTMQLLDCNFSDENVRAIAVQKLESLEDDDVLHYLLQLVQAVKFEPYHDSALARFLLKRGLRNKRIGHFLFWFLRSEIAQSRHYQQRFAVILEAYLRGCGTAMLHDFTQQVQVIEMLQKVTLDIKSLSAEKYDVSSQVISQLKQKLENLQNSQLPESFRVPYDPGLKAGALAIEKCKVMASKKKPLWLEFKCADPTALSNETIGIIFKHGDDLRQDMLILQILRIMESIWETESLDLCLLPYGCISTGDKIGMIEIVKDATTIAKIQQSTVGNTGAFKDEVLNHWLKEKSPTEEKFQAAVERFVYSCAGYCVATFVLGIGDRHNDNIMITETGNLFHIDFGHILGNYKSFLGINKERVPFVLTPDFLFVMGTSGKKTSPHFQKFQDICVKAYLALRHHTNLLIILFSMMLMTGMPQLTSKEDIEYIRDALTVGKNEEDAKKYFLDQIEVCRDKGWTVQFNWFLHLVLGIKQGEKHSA

| SMILES | IC50 (PI3Kγ) | IC50 (PI3Kα) | IC50 (mTOR) |
| --- | --- | --- | --- |
| Cn1cc(C=C2Oc3ccc(NC(=O)Nc4cccnc4)cc3C2=O)c2c(N3CCC(C(=O)NCCN4CCCC4)CC3)ccnc21 [Compound 203, 1-[1-methyl-3-({3-oxo-5-[(pyridin-3-ylcarbamoyl)amino]-1-benzofuran-2(3H)-ylidene}methyl)-1H-pyrrolo[2,3-b]pyridin-4-yl]-N-(2-pyrrolidin-1-ylethyl)piperidine-4-carboxamide] | > 10 µM | > 10 µM | 0.019 µM |
| Cn1cc(C=C2Oc3ccc(NC(=O)Nc4cccnc4)cc3C2=O)c2c(N3CCC(C(=O)N4CC=CC4)CC3)ccnc21 [Compound 204, 1-[2-({4-[4-(2,5-dihydro-1H-pyrrol-1-ylcarbonyl)piperidin-1-yl]-1-methyl-1H-pyrrolo[2,3-b]pyridin-3-yl}methylidene)-3-oxo-2,3-dihydro-1-benzofuran-5-yl]-3-pyridin-3-ylurea] | 1.73 µM | 5.62 µM | 0.01 µM |
| CN1CCC(N(C)C(=O)C2CCN(c3ccnc4c3c(C=C3Oc5ccc(NC(=O)Nc6cccnc6)cc5C3=O)cn4C)CC2)C1 (stereo not drawn) [Compound 205, N-methyl-1-[1-methyl-3-({3-oxo-5-[(pyridin-3-ylcarbamoyl)amino]-1-benzofuran-2(3H)-ylidene}methyl)-1H-pyrrolo[2,3-b]pyridin-4-yl]-N-(1-methylpyrrolidin-3-yl)piperidine-4-carboxamide] | 9.23 µM | > 10 µM | 0.049 µM |
| CN(C(=O)C1CCN(c2ccnc3c2c(C=C2Oc4ccc(NC(=O)Nc5cccnc5)cc4C2=O)cn3C)CC1)[C@@H]1CCNC1 [Compound 206, N-methyl-1-[1-methyl-3-({3-oxo-5-[(pyridin-3-ylcarbamoyl)amino]-1-benzofuran-2(3H)-ylidene}methyl)-1H-pyrrolo[2,3-b]pyridin-4-yl]-N-[(3R)-pyrrolidin-3-yl]piperidine-4-carboxamide] | > 10 µM | > 10 µM | 0.047 µM |
| Cn1cc(C=C2Oc3ccc(NC(=O)Nc4cccnc4)cc3C2=O)c2c(N3CCC(C(=O)N[C@@H]4CCNC4)CC3)ccnc21 [Compound 207, 1-[1-methyl-3-({3-oxo-5-[(pyridin-3-ylcarbamoyl)amino]-1-benzofuran-2(3H)-ylidene}methyl)-1H-pyrrolo[2,3-b]pyridin-4-yl]-N-[(3R)-pyrrolidin-3-yl]piperidine-4-carboxamide] | 4.29 µM | ≥ 10 µM | 0.016 µM |
| CN(C(=O)C1CCN(c2ccnc3c2c(C=C2Oc4ccc(NC(=O)Nc5cccnc5)cc4C2=O)cn3C)CC1)[C@H]1CCNC1 [Compound 208, N-methyl-1-[1-methyl-3-({3-oxo-5-[(pyridin-3-ylcarbamoyl)amino]-1-benzofuran-2(3H)-ylidene}methyl)-H-pyrrolo[2,3-b]pyridin-4-yl]-N-[(3S)-pyrrolidin-3-yl]piperidine-4-carboxamide] | > 10 µM | > 10 µM | 0.05 µM |
| Cn1cc(C=C2Oc3ccc(NC(=O)Nc4cccnc4)cc3C2=O)c2c(N3CCC(C(=O)N[C@H]4CCNC4)CC3)ccnc21 [Compound 209, 1-[1-methyl-3-({3-oxo-5-[(pyridin-3-ylcarbamoyl)amino]-1-benzofuran-2(3H)-ylidene}methyl)-1H-pyrrolo[2,3-b]pyridin-4-yl]-N-[(3S)-pyrrolidin-3-yl]piperidine-4-carboxamide] | 4.17 µM | > 10 µM | 0.0265 µM |
| CN(C)C1CCN(C(=O)C2CCN(c3ccnc4c3c(C=C3Oc5ccc(NC(=O)Nc6cccnc6)cc5C3=O)cn4C)CC2)C1 (stereo not drawn) [Compound 210, 1-(2-{[4-(4-{[3-(dimethylamino)pyrrolidin-1-yl]carbonyl}piperidin-1-yl)-1-methyl-1H-pyrrolo[2,3-b]pyridin-3-yl]methylidene}-3-oxo-2,3-dihydro-1-benzofuran-5-yl)-3-pyridin-3-ylurea] | 2.18 µM | > 10 µM | 0.011 µM |
